Measurements taken from ChEMBL document CHEMBL4414672, “Synthesis of certain benzothieno[3,2-d]pyrimidine derivatives as a selective SIRT2 inhibitors” (Eur J Med Chem, 2020).

Legend:
Assay type in all cases: functional
[1] = tested on: CCRF-CEM; experiment: Growth inhibition of human CCRF-CEM cells at 10^-5 M incubated for 48 hrs by sulforhodamine B assay; conditions: read-out: GI
[2] = tested on: HL-60(TB); experiment: Growth inhibition of human HL-60(TB) cells at 10^-5 M incubated for 48 hrs by sulforhodamine B assay; conditions: HL-60, 48 h, read-out: GI
[3] = tested on: K562; experiment: Growth inhibition of human K562 cells at 10^-5 M incubated for 48 hrs by sulforhodamine B assay; conditions: K562, 48 h, read-out: GI
[4] = tested on: EKVX; experiment: Growth inhibition of human EKVX cells at 10^-5 M incubated for 48 hrs by sulforhodamine B assay; conditions: read-out: GI
[5] = tested on: HOP-62; experiment: Growth inhibition of human HOP62 cells at 10^-5 M incubated for 48 hrs by sulforhodamine B assay; conditions: HOP-62, 48 h, read-out: GI
[6] = tested on: HOP-92; experiment: Growth inhibition of human HOP92 cells at 10^-5 M incubated for 48 hrs by sulforhodamine B assay; conditions: HOP-92, 48 h, read-out: GI
[7] = tested on: NCI-H23; experiment: Growth inhibition of human NCI-H23 cells at 10^-5 M incubated for 48 hrs by sulforhodamine B assay; conditions: NCI-H23, 48 h, read-out: GI
[8] = tested on: NCI-H460; experiment: Growth inhibition of human NCI-H460 cells at 10^-5 M incubated for 48 hrs by sulforhodamine B assay; conditions: NCI-H460, 48 h, read-out: GI
[9] = tested on: NCI-H522; experiment: Growth inhibition of human NCI-H522 cells at 10^-5 M incubated for 48 hrs by sulforhodamine B assay; conditions: NCI-H522, 48 h, read-out: GI
[10] = tested on: HCT-116; experiment: Growth inhibition of human HCT116 cells at 10^-5 M incubated for 48 hrs by sulforhodamine B assay; conditions: HCT-116, 48 h, read-out: GI
[11] = tested on: HT-29; experiment: Growth inhibition of human HT-29 cells at 10^-5 M incubated for 48 hrs by sulforhodamine B assay; conditions: HT-29, 48 h, read-out: GI
[12] = tested on: KM12; experiment: Growth inhibition of human KM12 cells at 10^-5 M incubated for 48 hrs by sulforhodamine B assay; conditions: KM12, 48 h, read-out: GI
[13] = tested on: SF-268; experiment: Growth inhibition of human SF268 cells at 10^-5 M incubated for 48 hrs by sulforhodamine B assay; conditions: SF-268, 48 h, read-out: GI
[14] = tested on: SF-295; experiment: Growth inhibition of human SF295 cells at 10^-5 M incubated for 48 hrs by sulforhodamine B assay; conditions: SF-295, 48 h, read-out: GI
[15] = tested on: SF-539; experiment: Growth inhibition of human SF539 cells at 10^-5 M incubated for 48 hrs by sulforhodamine B assay; conditions: SF-539, 48 h, read-out: GI
[16] = tested on: SNB-19; experiment: Growth inhibition of human SNB19 cells at 10^-5 M incubated for 48 hrs by sulforhodamine B assay; conditions: SNB-19, 48 h, read-out: GI
[17] = tested on: LOX IMVI; experiment: Growth inhibition of human LOXIMVI cells at 10^-5 M incubated for 48 hrs by sulforhodamine B assay; conditions: read-out: GI
[18] = tested on: Malme-3M; experiment: Growth inhibition of human MALME-3M cells at 10^-5 M incubated for 48 hrs by sulforhodamine B assay; conditions: read-out: GI
[19] = tested on: M14; experiment: Growth inhibition of human M14 cells at 10^-5 M incubated for 48 hrs by sulforhodamine B assay; conditions: M14, 48 h, read-out: GI
[20] = tested on: MDA-MB-435; experiment: Growth inhibition of human MDA-MB-435 cells at 10^-5 M incubated for 48 hrs by sulforhodamine B assay; conditions: MDA-MB-435, 48 h, read-out: GI
[21] = tested on: SK-MEL-2; experiment: Growth inhibition of human SK-MEL-2 cells at 10^-5 M incubated for 48 hrs by sulforhodamine B assay; conditions: SK-MEL-2, 48 h, read-out: GI
[22] = tested on: SK-MEL-28; experiment: Growth inhibition of human SK-MEL-28 cells at 10^-5 M incubated for 48 hrs by sulforhodamine B assay; conditions: SK-MEL-28, 48 h, read-out: GI
[23] = tested on: UACC-257; experiment: Growth inhibition of human UACC257 cells at 10^-5 M incubated for 48 hrs by sulforhodamine B assay; conditions: UACC-257, 48 h, read-out: GI
[24] = tested on: UACC-62; experiment: Growth inhibition of human UACC62 cells at 10^-5 M incubated for 48 hrs by sulforhodamine B assay; conditions: UACC-62, 48 h, read-out: GI
[25] = tested on: IGROV-1; experiment: Growth inhibition of human IGROV1 cells at 10^-5 M incubated for 48 hrs by sulforhodamine B assay; conditions: IGROV-1, 48 h, read-out: GI
[26] = tested on: OVCAR-4; experiment: Growth inhibition of human OVCAR4 cells at 10^-5 M incubated for 48 hrs by sulforhodamine B assay; conditions: OVCAR-4, 48 h, read-out: GI
[27] = tested on: OVCAR-5; experiment: Growth inhibition of human OVCAR5 cells at 10^-5 M incubated for 48 hrs by sulforhodamine B assay; conditions: OVCAR-5, 48 h, read-out: GI
[28] = tested on: OVCAR-8; experiment: Growth inhibition of human OVCAR8 cells at 10^-5 M incubated for 48 hrs by sulforhodamine B assay; conditions: OVCAR-8, 48 h, read-out: GI
[29] = tested on: SK-OV-3; experiment: Growth inhibition of human SKOV3 cells at 10^-5 M incubated for 48 hrs by sulforhodamine B assay; conditions: SK-OV-3, 48 h, read-out: GI
[30] = tested on: 786-0; experiment: Growth inhibition of human 786-0 cells at 10^-5 M incubated for 48 hrs by sulforhodamine B assay; conditions: 786-0, 48 h, read-out: GI
[31] = tested on: A498; experiment: Growth inhibition of human A498 cells at 10^-5 M incubated for 48 hrs by sulforhodamine B assay; conditions: A498, 48 h, read-out: GI
[32] = tested on: ACHN; experiment: Growth inhibition of human ACHN cells at 10^-5 M incubated for 48 hrs by sulforhodamine B assay; conditions: read-out: GI
[33] = tested on: SN12C; experiment: Growth inhibition of human SN12C cells at 10^-5 M incubated for 48 hrs by sulforhodamine B assay; conditions: read-out: GI
[34] = tested on: TK-10; experiment: Growth inhibition of human TK10 cells at 10^-5 M incubated for 48 hrs by sulforhodamine B assay; conditions: TK-10, 48 h, read-out: GI
[35] = tested on: UO-31; experiment: Growth inhibition of human UO31 cells at 10^-5 M incubated for 48 hrs by sulforhodamine B assay; conditions: UO-31, 48 h, read-out: GI
[36] = tested on: PC-3; experiment: Growth inhibition of human PC3 cells at 10^-5 M incubated for 48 hrs by sulforhodamine B assay; conditions: PC-3, 48 h, read-out: GI
[37] = tested on: DU-145; experiment: Growth inhibition of human DU145 cells at 10^-5 M incubated for 48 hrs by sulforhodamine B assay; conditions: DU-145, 48 h, read-out: GI
[38] = tested on: MCF7; experiment: Growth inhibition of human MCF7 cells at 10^-5 M incubated for 48 hrs by sulforhodamine B assay; conditions: MCF7, 48 h, read-out: GI
[39] = tested on: Hs-578T; experiment: Growth inhibition of human Hs 578T cells at 10^-5 M incubated for 48 hrs by sulforhodamine B assay; conditions: read-out: GI

Row | Structure (SMILES) | inhibition of growth at 10 µM [1] [%] | inhibition of growth at 10 µM [2] [%] | inhibition of growth at 10 µM [3] [%] | inhibition of growth at 10 µM [4] [%] | inhibition of growth at 10 µM [5] [%] | inhibition of growth at 10 µM [6] [%] | inhibition of growth at 10 µM [7] [%] | inhibition of growth at 10 µM [8] [%] | inhibition of growth at 10 µM [9] [%] | inhibition of growth at 10 µM [10] [%] | inhibition of growth at 10 µM [11] [%] | inhibition of growth at 10 µM [12] [%] | inhibition of growth at 10 µM [13] [%] | inhibition of growth at 10 µM [14] [%] | inhibition of growth at 10 µM [15] [%] | inhibition of growth at 10 µM [16] [%] | inhibition of growth at 10 µM [17] [%] | inhibition of growth at 10 µM [18] [%] | inhibition of growth at 10 µM [19] [%] | inhibition of growth at 10 µM [20] [%] | further results
1 | O=C1Nc2c(sc3ccc(Cl)cc23)C(c2ccccc2O)N1 (stereo not drawn) | -4.19 | 1.61 | 14.7 | 21.9 | 13.9 | 21 | 13.5 | 6.65 | 16 | 4.28 | -3.51 | -2.4 | 7.91 | 3.22 | 3.22 | 2.91 | -0.62 | 15.8 | 2.49 | -3.03 | inhibition of growth at 10 µM [21]: 2.38%; inhibition of growth at 10 µM [22]: -7.33%; inhibition of growth at 10 µM [23]: 9.85%; inhibition of growth at 10 µM [24]: 13.9%; inhibition of growth at 10 µM [25]: 19.7%; inhibition of growth at 10 µM [26]: 9.71%; inhibition of growth at 10 µM [27]: 1.92%; inhibition of growth at 10 µM [28]: 3.5%; inhibition of growth at 10 µM [29]: 4.45%; inhibition of growth at 10 µM [30]: 1.65%; inhibition of growth at 10 µM [31]: 17.4%; inhibition of growth at 10 µM [32]: 9.18%; inhibition of growth at 10 µM [33]: 7.73%; inhibition of growth at 10 µM [34]: -18.6%; inhibition of growth at 10 µM [35]: -18.6%; inhibition of growth at 10 µM [36]: 15.2%; inhibition of growth at 10 µM [37]: -8.18%; inhibition of growth at 10 µM [38]: -8.18%; inhibition of growth at 10 µM [39]: 3.74%
2 | O=[N+]([O-])c1cccc(C2c3sc4ccc(Cl)cc4c3N=C3NN=CN32)c1 (stereo not drawn) | -13.4 | -6.74 | -4.99 | 15 | 10.8 | -7.25 | 17.7 | 2.77 | 1.55 | 3.22 | -15.1 | 3.7 | 4.21 | -3.63 | 6.94 | 1.87 | 6.72 | -2.71 | -2.02 | -17.5 | inhibition of growth at 10 µM [21]: -3.53%; inhibition of growth at 10 µM [22]: -17.9%; inhibition of growth at 10 µM [23]: -3.45%; inhibition of growth at 10 µM [24]: 3.57%; inhibition of growth at 10 µM [25]: -11.9%; inhibition of growth at 10 µM [26]: 0.93%; inhibition of growth at 10 µM [27]: -1.09%; inhibition of growth at 10 µM [28]: 1.42%; inhibition of growth at 10 µM [29]: -4.54%; inhibition of growth at 10 µM [30]: 5.64%; inhibition of growth at 10 µM [31]: 22.4%; inhibition of growth at 10 µM [32]: 22%; inhibition of growth at 10 µM [33]: -37.5%; inhibition of growth at 10 µM [34]: 39%; inhibition of growth at 10 µM [35]: 23%; inhibition of growth at 10 µM [36]: -9.08%; inhibition of growth at 10 µM [37]: 28.2%; inhibition of growth at 10 µM [38]: 16.9%; inhibition of growth at 10 µM [39]: -18.1%
